Test results as given in patent EP4477653A1 (Perha Pharmaceuticals, priority 2023, dated 2024).

target: T1, human recombinant A3AR (expressed in HEK-293 cells) (Homo sapiens, UniProt P0DMS8); experiment: Adenosine receptors antagonism assay (Eurofins), [125I]-AB-MECA radioligand competition; format: binding; conditions: [125I]-AB-MECA 0.15 nM, r.t., 120 min; IC50 from dose-response curves; read-out: Potency Class A3AR
T1 construct: host or cells: HEK-293 cells
T1 sequence (P0DMS8 1-318): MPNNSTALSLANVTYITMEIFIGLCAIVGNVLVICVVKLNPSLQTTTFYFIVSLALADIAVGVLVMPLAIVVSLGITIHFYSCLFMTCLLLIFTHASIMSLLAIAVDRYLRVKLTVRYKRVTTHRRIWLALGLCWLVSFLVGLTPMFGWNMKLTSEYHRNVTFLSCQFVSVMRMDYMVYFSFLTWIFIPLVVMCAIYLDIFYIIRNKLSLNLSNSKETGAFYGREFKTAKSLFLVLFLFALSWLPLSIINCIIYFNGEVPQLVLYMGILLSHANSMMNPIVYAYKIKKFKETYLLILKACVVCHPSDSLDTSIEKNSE
Experimental: Assays were carried out at r.t. for 120 min. Compounds were initially tested at three concentrations (0.01, 0.1, 1 µM). […] IC50 values, which is the concentration causing a half-maximal inhibition of control specific binding, and Hill coefficients (nH) were determined by non-linear regression analysis of the competition curves generated with mean replicate values using Hill equation curve fitting. The inhibition constants (Ki) were calculated using the Cheng Prusoff equation.

`CCC(CC)Nc1cc(NCc2ccccn2)c2nnc(-c3cccnc3)n2n1` [compound 71, N6-(1-ethylpropyl)-3-(3-pyridyl)-N8-(2-pyridylmethyl)-[1,2,4]triazolo[4,3-b]pyridazine-6,8-diamine] and `CCC(CC)Nc1cc(NCc2ccccn2)c2nnc(-c3ccncc3)n2n1` [compound 72, N6-(1-ethylpropyl)-3-(4-pyridyl)-N8-(2-pyridylmethyl)-[1,2,4]triazolo[4,3-b]pyridazine-6,8-diamine] fall in the same range of IC50: 10 to 100 nM for the first, 10 to 100 nM for the second.

Compared with `CCC(CC)Nc1cc(NCc2ccccc2OC)c2nnc(C(C)C)n2n1` [compound 73, N6-(1-ethylpropyl)-3-isopropyl-N8-[(2-methoxyphenyl)methyl]-[1,2,4]triazolo[4,3-b]pyridazine-6,8-diamine], `CCC(CC)Nc1cc(NCc2ccccc2N)c2nnc(C(C)C)n2n1` [compound 77, N8-[(2-aminophenyl)methyl]-N6-(1-ethylpropyl)-3-isopropyl-[1,2,4]triazolo[4,3-b]pyridazine-6,8-diamine] is higher in IC50: 1 to 10 nM for the first, 10 to 100 nM for the second. The first is the more potent here.

First: CC[C@H](CO)Nc1cc(NCc2ccc(N)cc2)c2nnc(C(C)C)n2n1 [compound 74, (2R)-2-[[8-[(4-aminophenyl)methylamino]-3-isopropyl-[1,2,4]triazolo[4,3-b]pyridazin-6-yl]amino]butan-1-ol]
Second: CCC(CC)Nc1cc(NCc2ccc(N)cc2)c2nnc(C(C)C)n2n1 [compound 75, N8-[(4-aminophenyl)methyl]-N6-(1-ethylpropyl)-3-isopropyl-[1,2,4]triazolo[4,3-b]pyridazine-6,8-diamine]
The IC50 of the first is higher: 10 to 100 nM for the first, 1 to 10 nM for the second. The second is the more potent here.

`CCC(CC)Nc1cc(NCc2cccc(N)c2)c2nnc(C(C)C)n2n1` [compound 76, N8-[(3-aminophenyl)methyl]-N6-(1-ethylpropyl)-3-isopropyl-[1,2,4]triazolo[4,3-b]pyridazine-6,8-diamine] and `CCC(CC)Nc1cc(NCCc2ccccc2)c2nnc(C(C)C)n2n1` [compound 82, N6-(1-ethylpropyl)-3-isopropyl-N8-(2-phenylethyl)-[1,2,4]triazolo[4,3-b]pyridazine-6,8-diamine] fall in the same range of IC50: 1 to 10 nM for the first, 1 to 10 nM for the second.

`CCC(CC)Nc1cc(NCc2cc3ccccc3[nH]2)c2nnc(C(C)C)n2n1` [compound 78, N6-(1-ethylpropyl)-N8-(1H-indol-2-ylmethyl)-3-isopropyl-[1,2,4]triazolo[4,3-b]pyridazine-6,8-diamine] and `CCC(CC)Nc1cc(NC(=O)c2ccccc2)c2nnc(C(C)C)n2n1` [compound 96, N-[6-(1-ethylpropylamino)-3-isopropyl-[1,2,4]triazolo[4,3-b]pyridazin-8-yl]benzamide] fall in the same range of IC50: 10 to 100 nM for the first, 10 to 100 nM for the second.

Compared with `CCC(CC)Nc1cc(N2Cc3ccccc3C2)c2nnc(C(C)C)n2n1` [compound 79, N-(1-ethylpropyl)-8-isoindolin-2-yl-3-isopropyl-[1,2,4]triazolo[4,3-b]pyridazin-6-amine], `CCC(CC)Nc1cc(N2CCc3ccccc3C2)c2nnc(C(C)C)n2n1` [compound 80, 8-(3,4-dihydro-1H-isoquinolin-2-yl)-N-(1-ethylpropyl)-3-isopropyl-[1,2,4]triazolo[4,3-b]pyridazin-6-amine] is lower in IC50: 100 to 1000 nM for the first, 1 to 10 nM for the second.

First: CCC(CC)Nc1cc(NCCc2ccccn2)c2nnc(C(C)C)n2n1 [compound 83, N6-(1-ethylpropyl)-3-isopropyl-N8-[2-(2-pyridyl)ethyl]-[1,2,4]triazolo[4,3-b]pyridazine-6,8-diamine]
Second: CCC(CC)Nc1cc(NCCCc2ccccn2)c2nnc(C(C)C)n2n1 [compound 89, N6-(1-ethylpropyl)-3-isopropyl-N8-[3-(2-pyridyl)propyl]-[1,2,4]triazolo[4,3-b]pyridazine-6,8-diamine]
The IC50 of the first is lower: < 1 nM for the first, 10 to 100 nM for the second.

`CCC(CC)Nc1cc(NCCc2cccnc2)c2nnc(C(C)C)n2n1` [compound 84, N6-(1-ethylpropyl)-3-isopropyl-N8-[2-(3-pyridyl)ethyl]-[1,2,4]triazolo[4,3-b]pyridazine-6,8-diamine] and `CCC(CC)Nc1cc(NCCCc2cccnc2)c2nnc(C(C)C)n2n1` [compound 90, N6-(1-ethylpropyl)-3-isopropyl-N8-[3-(3-pyridyl)propyl]-[1,2,4]triazolo[4,3-b]pyridazine-6,8-diamine] fall in the same range of IC50: 1 to 10 nM for the first, 1 to 10 nM for the second.

`CCC(CC)Nc1cc(NCCc2ccncc2)c2nnc(C(C)C)n2n1` [compound 85, N6-(1-ethylpropyl)-3-isopropyl-N8-[2-(4-pyridyl)ethyl]-[1,2,4]triazolo[4,3-b]pyridazine-6,8-diamine] and `CCC(CC)Nc1cc(NCCCc2ccncc2)c2nnc(C(C)C)n2n1` [compound 91, N6-(1-ethylpropyl)-3-isopropyl-N8-[3-(4-pyridyl)propyl]-[1,2,4]triazolo[4,3-b]pyridazine-6,8-diamine] fall in the same range of IC50: 1 to 10 nM for the first, 1 to 10 nM for the second.

`CCC(CC)Nc1cc(NCCc2ccccn2)c2nnc(C3CC3)n2n1` [compound 86, 3-cyclopropyl-N6-(1-ethylpropyl)-N8-[2-(2-pyridyl)ethyl]-[1,2,4]triazolo[4,3-b]pyridazine-6,8-diamine] and `CCC(CC)Nc1cc(NCCc2cccnc2)c2nnc(C3CC3)n2n1` [compound 87, 3-cyclopropyl-N6-(1-ethylpropyl)-N8-[2-(3-pyridyl)ethyl]-[1,2,4]triazolo[4,3-b]pyridazine-6,8-diamine] cannot be ordered by IC50: < 1 nM for the first, < 1 nM for the second.

`CCC(CC)Nc1cc(NCCc2ccncc2)c2nnc(C3CC3)n2n1` [compound 88, 3-cyclopropyl-N6-(1-ethylpropyl)-N8-[2-(4-pyridyl)ethyl]-[1,2,4]triazolo[4,3-b]pyridazine-6,8-diamine] and `CCC(CC)Nc1cc(NCc2cnccn2)c2nnc(C(C)C)n2n1` [compound 94, N6-(1-ethylpropyl)-3-isopropyl-N8-(pyrazin-2-ylmethyl)-[1,2,4]triazolo[4,3-b]pyridazine-6,8-diamine] fall in the same range of IC50: 1 to 10 nM for the first, 1 to 10 nM for the second.

First: CCC(CC)Nc1cc(NCc2ncccn2)c2nnc(C(C)C)n2n1 [compound 92, N6-(1-ethylpropyl)-3-isopropyl-N8-(pyrimidin-2-ylmethyl)-[1,2,4]triazolo[4,3-b]pyridazine-6,8-diamine]
Second: CCC(CC)Nc1cc(NCc2cccnn2)c2nnc(C(C)C)n2n1 [compound 95, N6-(1-ethylpropyl)-3-isopropyl-N8-(pyridazin-3-ylmethyl)-[1,2,4]triazolo[4,3-b]pyridazine-6,8-diamine]
The IC50 of the first is higher: 10 to 100 nM for the first, 1 to 10 nM for the second.

First: CCC(CC)Nc1cc(NCc2cncnc2)c2nnc(C(C)C)n2n1 [compound 93, N6-(1-ethylpropyl)-3-isopropyl-N8-(pyrimidin-5-ylmethyl)-[1,2,4]triazolo[4,3-b]pyridazine-6,8-diamine]
Second: CC[C@@H](CO)Nc1cc(NCc2ccc(Br)cc2)c2nnc(C(C)C)n2n1 [compound 101, (2S)-2-[[8-[(4-bromophenyl)methylamino]-3-isopropyl-[1,2,4]triazolo[4,3-b]pyridazin-6-yl]amino]butan-1-o1]
The IC50 of the first is lower: 1 to 10 nM for the first, 10 to 100 nM for the second.

Compared with `CCC(CC)Nc1cc(NC(=O)c2ccccn2)c2nnc(C(C)C)n2n1` [compound 97, N-[6-(1-ethylpropylamino)-3-isopropyl-[1,2,4]triazolo[4,3-b]pyridazin-8-yl]pyridine-2-carboxamide], `CCC(CC)Nc1cc(NC(=O)Cc2ccccc2)c2nnc(C(C)C)n2n1` [compound 98, N-[6-(1-ethylpropylamino)-3-isopropyl-[1,2,4]triazolo[4,3-b]pyridazin-8-yl]-2-phenyl-acetamide] is lower in IC50: 10 to 100 nM for the first, < 1 nM for the second. The second is the more potent here.

Compared with `CCOC(=O)Nc1cc(NC(CC)CC)nn2c(C(C)C)nnc12` [compound 99, ethyl N-[6-(1-ethylpropylamino)-3-isopropyl-[1.2.4]triazolo[4,3-b]pyridazin-8-yl]carbamate], `CC[C@@H](CO)Nc1cc(NCc2ccc(-c3ccccc3)cc2)c2nnc(C(C)C)n2n1` [compound 102, (2S)-2-[[3-isopropyl-8-[(4-phenylphenyl)methylamino]-[1,2,4]triazolo[4,3-b]pyridazin-6-yl]amino]butan-1-ol] is higher in IC50: 1 to 10 nM for the first, 10 to 100 nM for the second. The first is the more potent here.

`CC[C@@H](CO)Nc1cc(NCc2ccc(-c3ccncc3)cc2)c2nnc(C(C)C)n2n1` [compound 103, (2S)-2-[[3-isopropyl-8-[[4-(4-pyridyl)phenyl]methylamino]-[1,2,4]triazolo[4,3-b]pyridazin-6-yl]amino]butan-1-ol] and `CC[C@@H](CO)Nc1cc(NCc2ccc(-c3cccnc3)cc2)c2nnc(C(C)C)n2n1` [compound 104, (2S)-2-[[3-isopropyl-8-[[4-(3-pyridyl)phenyl]methylamino]-[1,2,4]triazolo[4,3-b]pyridazin-6-yl]amino]butan-1-ol] fall in the same range of IC50: 10 to 100 nM for the first, 10 to 100 nM for the second.

`CC[C@@H](CO)Nc1cc(NCc2ccc(-c3ccccn3)cc2)c2nnc(C(C)C)n2n1` [compound 105, (2S)-2-[[3-isopropyl-8-[[4-(2-pyridyl)phenyl]methylamino]-[1,2,4]triazolo[4,3-b]pyridazin-6-yl]amino]butan-1-ol] and `CC(C)c1nnc2c(NCc3ccc(-c4ccccn4)cc3)cc(N[C@H](CO)[C@@H](C)O)nn12` [compound 107, (2R,3R)-2-[[3-isopropyl-8-[[4-(2-pyridyl)phenyl]methylamino]-[1,2,4]triazolo[4,3-b]pyridazin-6-yl]amino]butane-1,3-diol] fall in the same range of IC50: 10 to 100 nM for the first, 10 to 100 nM for the second.

Compound `CC(C)c1nnc2c(NCc3ccc(Br)cc3)cc(N[C@H](CO)[C@@H](C)O)nn12` [compound 106, (2R,3R)-2-[[8-[(4-bromophenyl)methylamino]-3-isopropyl-[1,2,4]triazolo[4,3-b]pyridazin-6-yl]amino]butane-1,3-diol] has an IC50 of 100 to 1000 nM.
